Data published in US11974551B2, “L-serine compositions, methods and uses for treating neurodegenerative diseases and disorders” (priority 2011, dated 2024).
“Also recorded” adds a separate entry of the source.

Tests used:
Format in all cases: cell-based, human
MRC-5 cells [1] = test: Autofluorescence imaging of cells; conditions: BMAA 300 μM with L-serine 300 μM, 96 hours
Description: MRC-5 cells were incubated in DMEM supplemented with 300 μM BMAA in the presence or absence of 300 μM L-serine for 96 hours with daily medium changes. Cellular autofluorescence was visualized using an inverted fluorescent microscope (Olympus IX71) as described previously (Dunlop, et al., Biochem J 410, 131-140 (2008)).

MRC-5 cells [2] = test: Protein-bound non-labeled BMAA in hydrolysed cell proteins by triple quadrupole LC/MS/MS; conditions: BMAA 250-1000 μM with L-serine 250-1000 μM, or CHX
Description: After incubation with ^3H-BMAA or cold BMAA, cells were washed three times with PBS, lysed by freeze thawing in Triton-X-100 (0.1%) and cell proteins precipitated in TCA (5%). Protein pellets were washed three times with TCA (5%) and hydrolysed in boiling 6 M HCl at 110° C. for 16 hours as previously described (Mondo, et al., Mar Drugs 10, 509-520 (2012)). Protein pellets were freeze-dried and reconstituted in 20 mM HCl. Particulates were removed by centrifugation through […] membranes and the hydrolysate derivatized in AccQ·Tag (Waters Corporation, Australia). Amino acids were separated on a Waters C-18 column using a method and gradient as described previously (Mondo, et al., Mar Drugs 10, 509-520 (2012)). For recovery of radiolabel in hydrolysed samples, fractions were collected manually every minute for 40 minutes, diluted into 5 ml scintillant (Ultima Gold™ scintillant, Perkin Elmer) and disintegrations per minute (DPM) determined by LSC.
To further confirm that BMAA was present in cell proteins and incorporation was inhibited by L-serine, MRC-5 cells were incubated with a range of concentrations of BMAA (250-1000 μM) or BMAA with L-serine (250-1000 μM) and hydrolysed cell proteins were analyzed by tandem mass spectroscopy on a triple quadrupole LC/MS/MS. […]

MRC-5 cells [3] = test: Incorporation of 3H-BMAA radiolabel into cell proteins (TCA precipitation, liquid scintillation counting); conditions: 3H-BMAA 31.25 nM, 16 hours
Description: MRC-5 cells were incubated with ^3H-BMAA (31.25 nM) in HBSS containing 10% FCS. After 2, 4, and 16 hours, cells were washed three times in phosphate buffered saline and lysed by freeze-thawing in Triton X-100. The protein concentration in the lysate was determined using the bicinchoninic acid assay (BCA) (Smith, et al., Anal Biochem 150, 76-85 (1985)) (and radiolabel in the cell lysate quantified by liquid scintillation counting (LSC). Cell proteins were then isolated by trichloroacetic acid (TCA) (5%) precipitation washed three times in TCA (5%) and dissolved in formic acid.
To determine if incorporation of radiolabel into proteins was protein synthesis dependent MRC-5, SH-SY5Y and HUVEC cells were incubated with ^3H-BMAA (31.25 nM) with or without CHX 2 μg/ml for 16 hours. The amount of radiolabel present in cell proteins in the CHM-treated cultures was expressed relative to that of control cultures, which was set at 100%. Parallel cultures of MRC-5 cells were incubated with ^3H-leucine (41 nM) with or without CHX 2 μg/ml under identical culture conditions and processed as before.
To examine the ability of individual amino acids to reduce incorporation or radiolabel into proteins, MRC-5 cells were incubated with ^3H-BMAA (31.25 nM) for 16 hours in the presence of individual amino acids (250 μM) and the radiolabel present in the cell proteins assessed as before. All of the 20 protein amino acids (L-isomers) were examined individually in triplicate cell cultures. […] Incorporation of radiolabel was determined relative to cells incubated in medium containing no serine. MRC-5 cells were then incubated with ^3H-BMAA (31.25 nM) for 16 hours in HBSS alone, HBSS containing all 20 protein amino acids (400 μM) or 19 protein amino acids except L-serine and the amount of radiolabel in cell protein assessed as before.

With `N[C@@H](CO)C(=O)O` [L-serine] the “effect on BMAA-induced formation of autofluorescent bodies” value (MRC-5 cells [1]) was “prevented the formation of autofluorescent bodies”, the “effect on incorporation of non-labeled BMAA into cell proteins” value (MRC-5 cells [2]) was “inhibited” and the “incorporation of BMAA into proteins when L-serine was omitted from the amino acid mixture” value (MRC-5 cells [3]; 19 protein amino acids 400 μM without L-serine) was “significantly increased”. For the same compound, the “effect on incorporation of 3H-BMAA into cell proteins” value (MRC-5 cells [3]; L-serine 0, 50, 100 and 250 μM) was “inhibited in the presence of L-serine in a concentration-dependent manner; also recorded: inhibition of incorporation of radiolabel into cell proteins”.
